Molecular target: ASGPR (Homo sapiens (Human), UniProt P07306)
Experiment: Affinity to ASGPR measured by surface plasmon resonance (SPR)
Assay type: binding
Conditions: ASGPR ligands, Table 2; Biacore 8K, 25° C., steady state fit; read-out: SPR Binding External Calculation: KD

ASGPR, sequence (P07306 whole entry): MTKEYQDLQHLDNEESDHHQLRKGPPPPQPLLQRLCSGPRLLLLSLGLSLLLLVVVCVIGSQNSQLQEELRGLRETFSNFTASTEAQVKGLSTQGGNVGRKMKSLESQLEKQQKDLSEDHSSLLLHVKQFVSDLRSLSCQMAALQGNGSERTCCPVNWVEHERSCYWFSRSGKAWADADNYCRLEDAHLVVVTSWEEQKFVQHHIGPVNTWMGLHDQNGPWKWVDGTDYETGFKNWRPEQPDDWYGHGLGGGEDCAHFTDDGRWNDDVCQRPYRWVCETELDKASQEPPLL

Kd	Compound
< 100 µM	CO[C@@H]1O[C@H](CO)[C@H](O)[C@H](O)[C@H]1Nc1nc(N2CCN(C)CC2)ns1 [Compound A116, (2R,3R,4R,5R,6R)-2-(hydroxymethyl)-6-methoxy-5-((3-(4-methylpiperazin-1-yl)-1,2,4-thiadiazol-5-yl)amino)tetrahydro-2H-pyran-3,4-diol]
< 100 µM	CO[C@H]1O[C@H](CO)[C@H](O)[C@H](O)[C@H]1Nc1ncc(Cl)cc1F [Compound A113]
100 to 500 µM	CO[C@@H]1O[C@H](CO)[C@H](O)[C@H](O)[C@H]1N [Compound A90, (2R,3R,4R,5R,6R)-5-amino-2-(hydroxymethyl)-6-methoxytetrahydro-2H-pyran-3,4-diol]
> 1000 µM	N[C@H]1CO[C@H](CO)[C@H](O)[C@@H]1O [Compound A92, (2R,3R,4R,5S)-5-amino-2-(hydroxymethyl)tetrahydro-2H-pyran-3,4-diol]
> 1000 µM	C[C@@H]1CO[C@H](CO)[C@H](O)[C@@H]1O [Compound A182, (2R,3R,4R,5R)-2-(hydroxymethyl)-5-methyltetrahydro-2H-pyran-3,4-diol]
< 100 µM	CO[C@H]1O[C@H](CO)[C@H](O)[C@H](O)[C@H]1Nc1nc(Cl)ns1 [Compound A105, (2R,3R,4R,5R,6S)-5-((3-chloro-1,2,4-thiadiazol-5-yl)amino)-2-(hydroxymethyl)-6-methoxytetrahydro-2H-pyran-3,4-diol]
> 1000 µM	C[C@@H]1[C@H](Oc2ccccc2)O[C@H](CO)[C@H](O)[C@@H]1O [Compound A191, (2R,3R,4R,5S,6S)-2-(hydroxymethyl)-5-methyl-6-phenoxytetrahydro-2H-pyran-3,4-diol]
100 to 500 µM	OC[C@H]1OC[C@H](Nc2ncc(F)cc2F)[C@@H](O)[C@H]1O [Compound A103]

Same assay, conditions: ASGPR ligands, Table 4; class symbols; read-out: ASGPR_PR Binding KD

Kd	Compound
< 100 µM	OC[C@H]1OC[C@H](Nc2nc(N3CCOCC3)ns2)[C@@H](O)[C@H]1O [Compound A340, (2R,3R,4R,5S)-2-(hydroxymethyl)-5-((3-morpholino-1,2,4-thiadiazol-5-yl)amino)tetrahydro-2H-pyran-3,4-diol]
100 to 500 µM	OC[C@H]1OC[C@@H](CN2CCCCC2)[C@@H](O)[C@H]1O [Compound A213, (2R,3R,4R,5R)-2-(hydroxymethyl)-5-(piperidin-1-ylmethyl)tetrahydro-2H-pyran-3,4-diol]
> 1000 µM	O=C(NC[C@@H]1CO[C@H](CO)[C@H](O)[C@@H]1O)C(F)(F)F [Compound A186, N-(((3R,4R,5R,6R)-4,5-dihydroxy-6-(hydroxymethyl)tetrahydro-2H-pyran-3-yl)methyl)-2,2,2-trifluoroacetamide]
< 100 µM	OC[C@H]1OC[C@H](Nc2cccc(C(F)(F)F)c2)[C@@H](O)[C@H]1O [Compound A355, (2R,3R,4R,5S)-2-(hydroxymethyl)-5-((3-(trifluoromethyl)phenyl)amino) tetrahydro-2H-pyran-3,4-diol]
< 100 µM	OC[C@H]1OC[C@H](Nc2cccc(C(F)(F)F)n2)[C@@H](O)[C@H]1O [Compound A302]
< 100 µM	OC[C@H]1OC[C@@H](Nc2nc(Cl)ns2)[C@@H](O)[C@H]1O [Compound A146, (2R,3R,4R,5R)-5-((3-chloro-1,2,4-thiadiazol-5-yl)amino)-2-(hydroxymethyl)tetrahydro-2H-pyran-3,4-diol]
< 100 µM	OC[C@H]1OC[C@H](Nc2ncc(Cl)c(C(F)(F)F)n2)[C@@H](O)[C@H]1O [Compound A324]
100 to 500 µM	OC[C@H]1OC[C@@H](CNc2nc(Cl)ns2)[C@@H](O)[C@H]1O [Compound A188, (2R,3R,4R,5R)-5-(((3-chloro-1,2,4-thiadiazol-5-yl)amino)methyl)-2-(hydroxymethyl)tetrahydro-2H-pyran-3,4-diol]
< 100 µM	CO[C@@H]1O[C@H](CO)[C@H](O)[C@H](O)[C@H]1Nc1nccc(C(F)(F)F)n1 [Compound A384]
< 100 µM	COc1cc(N[C@H]2CO[C@H](CO)[C@H](O)[C@@H]2O)nc(OC)n1 [Compound A363, (2R,3R,4R,5S)-5-((2,6-dimethoxypyrimidin-4-yl)amino)-2-(hydroxymethyl) tetrahydro-2H-pyran-3,4-diol]
< 100 µM	CN(C)c1nsc(N[C@H]2CO[C@H](CO)[C@H](O)[C@@H]2O)n1 [Compound A339, (2R,3R,4R,5S)-5-((3-(dimethylamino)-1,2,4-thiadiazol-5-yl)amino)-2-(hydroxymethyl)tetrahydro-2H-pyran-3,4-diol]
< 100 µM	COc1nc(C#N)nc(N[C@H]2CO[C@H](CO)[C@H](O)[C@@H]2O)n1 [Compound A349, 4-(((3S,4R,5R,6R)-4,5-dihydroxy-6-(hydroxymethyl)tetrahydro-2H-pyran-3-yl)amino)-6-methoxy-1,3,5-triazine-2-carbonitrile]
< 100 µM	OC[C@H]1OC[C@H](Nc2cc(Cl)c(Cl)cn2)[C@@H](O)[C@H]1O [Compound A298]
< 100 µM	OC[C@H]1OC[C@H](Nc2nc3ccccc3s2)[C@@H](O)[C@H]1O [Compound A354, (2R,3R,4R,5S)-5-(benzo[d]thiazol-2-ylamino)-2-(hydroxymethyl)tetrahydro-2H-pyran-3,4-diol]
< 100 µM	C=CCO[C@H]1O[C@H](CO)[C@H](O)[C@H](O)[C@H]1Nc1nccc(C(F)(F)F)n1 [Compound A406, (2R,3R,4R,5R,6S)-6-(allyloxy)-2-(hydroxymethyl)-5-((4-(trifluoromethyl)pyrimidin-2-yl)amino)tetrahydro-2H-pyran-3,4-diol]
< 100 µM	N#Cc1ccnc(N[C@H]2CO[C@H](CO)[C@H](O)[C@@H]2O)n1 [Compound A309]
< 100 µM	CO[C@H]1O[C@H](CO)[C@H](O)[C@H](O)[C@H]1Nc1cccc(F)n1 [Compound A380]
< 100 µM	N#Cc1nc(Cl)cc(N[C@H]2CO[C@H](CO)[C@H](O)[C@@H]2O)n1 [Compound A320]

Same assay, conditions: ASGPR ligands, Table 4; numeric lower bounds; read-out: ASGPR_PR Binding KD

Kd	Compound
> 20 µM	N#Cc1cnc(N[C@H]2CO[C@H](CO)[C@H](O)[C@@H]2O)s1 [Compound A372, 2-(((3S,4R,5R,6R)-4,5-dihydroxy-6-(hydroxymethyl)tetrahydro-2H-pyran-3-yl)amino)thiazole-5-carbonitrile]
> 200 µM	CNC(=O)[C@@H]1CO[C@H](CO)[C@H](O)[C@@H]1O [Compound A400, (3R,4R,5R,6R)-4,5-dihydroxy-6-(hydroxymethyl)-N-methyltetrahydro-2H-pyran-3-carboxamide]
> 20 µM	OC[C@H]1OC[C@H](Nc2cc(C(F)(F)F)ncn2)[C@@H](O)[C@H]1O [Compound A310]
> 20 µM	NC(=O)NC[C@@H]1CO[C@H](CO)[C@H](O)[C@@H]1O [Compound A403, 1-(((3R,4R,5R,6R)-4,5-dihydroxy-6-(hydroxymethyl)tetrahydro-2H-pyran-3-yl)methyl)urea]
> 20 µM	OC[C@H]1OC[C@H](Nc2nc3ccc(C(F)(F)F)cc3s2)[C@@H](O)[C@H]1O [Compound A322]
